In the test the test system is Bacillus subtilis ATCC 6633. The test is described as follows: Test for antibacterial activity (paper disk, diameter of inhibitory zone, before and after incubation in rat liver/kidney homogenate). In kind it is cell-based. The note with it: 200 mcq/ml, 8 mm paper disk. How it is done: Each of the test compounds shown in the following table was dissolved in a concentration of 200 mcq/ml in a homogenate of a 10% physiological saline solution of an organ of a rat, and incubated at 37° C. for 2 hours. An enzymatic reaction was stopped by adding an equal amount of ethanol. The antibacterial activity of the test compound before incubation was compared with that after incubation. The incubation was carried out in an equal amount mixture of a liver homogenate and a kidney homogenate. The antibacterial activity was measured by a paper disk having a diameter of 8 mm using Bacillus subtilis ATCC 6633 as a test organism, and shown by the diameter of the resulting inhibitory zone.

Setting [1] is: ATCC6633, after incubation at 37° C. for 2 hours in rat liver homogenate and kidney homogenate, read-out: Diameter of the inhibitory zone, after incubation.
Where [2] appears, read: ATCC6633, before incubation, read-out: Diameter of the inhibitory zone, before incubation.

The values below come from patent US4855287A, “Aminoglycoside compounds, processes for production thereof, and pharamaceutical composition containing the same” (Kowa Company, Ltd., priority 1985, dated 1989).

Read-outs that look alike come from different tables or passages of the source.

As to `CC(=O)NCCCC[C@H](N)C(=O)NCC(=O)N(C)C1C(O)CC(N)C(OC2OC(C(C)N)CCC2N)C1O` (stereo partly drawn) [Example 1, 2"-N-(N^ε -acetyl-L-lysyl)-5-de-O-methyl-KA-6606I], the zone of inhibition at 200 µg/mL is, setting by setting: under setting [1], 25.1 mm; under setting [2], 14.1 mm.
`CCCCCCCCCC(=O)NCCCC[C@H](N)C(=O)NCC(=O)N(C)C1C(O)CC(N)C(OC2OC(C(C)N)CCC2N)C1O` (stereo partly drawn) [Example 2, 2"-N-(N^ε -decanoyl-L-lysyl)-5-de-O-methyl-KA-6606I]: the zone of inhibition at 200 µg/mL runs as follows: under setting [1], 22 mm; under setting [2], 15.9 mm.
Consider `CCCCCCCCCCCCCCCCCC(=O)NCCCC[C@H](N)C(=O)NCC(=O)N(C)C1C(O)CC(N)C(OC2OC(C(C)N)CCC2N)C1O` (stereo partly drawn) [Example 3, 2"-N-(N^ε -stearoyl-L-lysyl)-5-de-O-methyl-KA-6606I], for which the zone of inhibition at 200 µg/mL runs as follows: under setting [1], 15.5 mm; under setting [2], 14 mm.
The matching figures for `CC(N)C1CCC(N)C(OC2C(N)CC(O)C(N(C)C(=O)CNC(=O)[C@@H](N)CCCCNC(=O)CC[C@@H](C)[C@H]3CC[C@H]4[C@@H]5CC[C@@H]6C[C@H](O)CC[C@]6(C)[C@H]5C[C@H](O)[C@]34C)C2O)O1` (stereo partly drawn) [Example 4, 2"-N-(N^ε -deoxycholyl-L-lysyl)-5-de-O-methyl-KA-6606I]: 19.8 mm and 12.7 mm.
Regarding `CCCCCCCCCC(=O)NCC(=O)NCCCC[C@H](N)C(=O)NCC(=O)N(C)C1C(O)CC(N)C(OC2OC(C(C)N)CCC2N)C1O` (stereo partly drawn) [Example 5], the zone of inhibition at 200 µg/mL reads like this: under setting [1], 21 mm; under setting [2], 15.5 mm.
With `CCCCCCCCCCCCCCCCCC(=O)NCC(=O)NCCCC[C@H](N)C(=O)NCC(=O)N(C)C1C(O)CC(N)C(OC2OC(C(C)N)CCC2N)C1O` (stereo partly drawn) [Example 6, 2"-N-[N^ε -(N-stearoylglysyl)-L-lysyl]-5-de-O-methyl-KA-6606I], the zone of inhibition at 200 µg/mL by setting is: under setting [1], 16.6 mm; under setting [2], 10.5 mm.
The matching figures for `CCCCCCCCOC(=O)NCCCC[C@H](N)C(=O)NCC(=O)N(C)C1C(O)CC(N)C(OC2OC(C(C)N)CCC2N)C1O` (stereo partly drawn) [Example 7, 2"-N-(N^ε -octyloxycarbonyl-L-lysyl)-5-de-O-methyl-KA-6606I]: 20.7 mm and 10.5 mm.
Turning to `COC(=O)C[C@H](N)C(=O)NCC(=O)N(C)C1C(O)CC(N)C(OC2OC(C(C)N)CCC2N)C1O` (stereo partly drawn) [Example 8, 2"-N-(β-O-methyl-L-aspartyl)-5-de-O-methyl-KA-666I], the zone of inhibition at 200 µg/mL reads like this: under setting [1], 23.9 mm; under setting [2], 15.9 mm.
Regarding `CC(N)C1CCC(N)C(OC2C(N)CC(O)C(N(C)C(=O)CNC(=O)[C@@H](N)CC(=O)OC(C)(C)C)C2O)O1` (stereo partly drawn) [Example 9, 2"-N-(β-O-tert.-butyl-L-aspartyl)-5-de-O-methyl-KA-6606I], the zone of inhibition at 200 µg/mL worked out at 23.2 mm under setting [1] and 12.7 mm under setting [2].
The matching figures for `CCCCCCCCOC(=O)C[C@H](N)C(=O)NCC(=O)N(C)C1C(O)CC(N)C(OC2OC(C(C)N)CCC2N)C1O` (stereo partly drawn) [Example 10, 2"-N-(β-O-octyl-L-aspartyl)-5-de-O-methyl-KA-6606I]: 21.1 mm and 14.2 mm.
In the case of `CC(N)C1CCC(N)C(OC2C(N)CC(O)C(N(C)C(=O)CNC(=O)[C@@H](N)CC(=O)Oc3ccccc3)C2O)O1` (stereo partly drawn) [Example 11, 2"-N-(β-O-phenyl-L-aspartyl)-5-de-O-methyl-KA-6606I], the zone of inhibition at 200 µg/mL under setting [1] was 19 mm and the zone of inhibition at 200 µg/mL under setting [2] was 14 mm.
As to `CC(N)C1CCC(N)C(OC2C(N)CC(O)C(N(C)C(=O)CNC(=O)[C@@H](N)CC(=O)Oc3cccc4ccccc34)C2O)O1` (stereo partly drawn) [Example 12, 2"-N-[β-O-(α-naphthyl)-L-aspartyl]-5-de-O-methyl-KA-6606I], the zone of inhibition at 200 µg/mL was 18.3 mm under setting [1] and 12.6 mm under setting [2].
Regarding `CCCCCCCCCCCCCCCCCC(=O)OCC(O)COC(=O)C[C@H](N)C(=O)NCC(=O)N(C)C1C(O)CC(N)C(OC2OC(C(C)N)CCC2N)C1O` (stereo partly drawn) [Example 13, 2"-N-[β-O-(3-stearoyloxy-2-hydroxypropyl)-L-aspartyl]-5-de-O-methyl-KA-6606I], the zone of inhibition at 200 µg/mL is 18.8 mm under setting [1] and 13.7 mm under setting [2].
The matching figures for `CCCCCCCCCC(=O)OCCOC(=O)CC[C@H](N)C(=O)NCC(=O)N(C)C1C(O)CC(N)C(OC2OC(C(C)N)CCC2N)C1O` (stereo partly drawn) [Example 15, 2"-N-[γ-O-(2-decanoyloxyethyl)-L-glutamyl]-5-de-O-methyl-KA-6606I]: 24.4 mm and 13.9 mm.
For the compound `CCCCCCCCCC(=O)OCC(COC(=O)CCCCCCCCC)OC(=O)CCC(N)C(=O)NCC(=O)N(C)C1C(O)CC(N)C(OC2OC(C(C)N)CCC2N)C1O` [Example 16, 2"-N-{γ-O-[2-(1,3-bis-decanoyloxy)propyl]-L-glutamyl}-5-de-O-methyl-KA-6606I], the zone of inhibition at 200 µg/mL under setting [1] was found to be 17.5 mm and the zone of inhibition at 200 µg/mL under setting [2] worked out at 12.5 mm.
As for `CCCCCCCCCC(=O)OCC(COC(=O)CC[C@H](N)C(=O)NCC(=O)N(C)C1C(O)CC(N)C(OC2OC(C(C)N)CCC2N)C1O)OC(=O)CCCCCCCCC` (stereo partly drawn) [Example 17, 2"-N-[γ-O-(2,3-bis-decanoyloxypropyl)-L-glutamyl]-5-de-O-methyl-KA-66606I], the zone of inhibition at 200 µg/mL under setting [1] came out at 19.7 mm and the zone of inhibition at 200 µg/mL under setting [2] came out at 10.6 mm.
The matching figures for `CCCCCCCCCC(=O)OCCCOC(=O)CC[C@H](N)C(=O)NCC(=O)N(C)C1C(O)CC(N)C(OC2OC(C(C)N)CCC2N)C1O` (stereo partly drawn) [Example 18, 2"-N-[γ-O-(3-decanoyloxypropyl)-L-glutamyl]-5-de-O-methyl-KA-6606I]: 23.9 mm and 16.8 mm.
Consider `CCCCCCCCCCCCCCCCCC(=O)OCCCOC(=O)CC[C@H](N)C(=O)NCC(=O)N(C)C1C(O)CC(N)C(OC2OC(C(C)N)CCC2N)C1O` (stereo partly drawn) [Example 19, 2"-N-[γ-O-(3-stearoyloxypropyl)-L-glutamyl]-5-de-O-methyl-KA-6606I], for which the zone of inhibition at 200 µg/mL was determined as 22.7 mm under setting [1] and 13.7 mm under setting [2].
`CC(N)C1CCC(N)C(OC2C(N)CC(O)C(N(C)C(=O)CNC(=O)[C@@H](N)CCC(=O)OCCCCOC(=O)c3cccc4ccccc34)C2O)O1` (stereo partly drawn) [Example 21, 2"-N-{γ-O-[4-(α-naphthoyloxy)butyl]-L-glutamyl}-5-de-O-methyl-KA-6606I]: the zone of inhibition at 200 µg/mL came to 22.6 mm under setting [1] and 15.1 mm under setting [2].
Turning to `CCCCCCCCCC(=O)OCC(CCOC(=O)CC[C@H](N)C(=O)NCC(=O)N(C)C1C(O)CC(N)C(OC2OC(C(C)N)CCC2N)C1O)OC(=O)CCCCCCCCC` (stereo partly drawn) [Example 22, 2"-N-{γ-[3,4-bis-(decanoyloxy)butyl]-L-glutamyl}-5-de-O-methyl-KA-6606I], the zone of inhibition at 200 µg/mL is, setting by setting: under setting [1], 18.3 mm; under setting [2], 10.7 mm.
In the case of `CCCCCCCCCC(=O)OCC(CCCCOC(=O)CC[C@H](N)C(=O)NCC(=O)N(C)C1C(O)CC(N)C(OC2OC(C(C)N)CCC2N)C1O)OC(=O)CCCCCCCCC` (stereo partly drawn) [Example 23, 2"-N-{γ-[5,6-bis-(decanoyloxy)hexyl]-L-glutamyl}-5-de-O-methyl-KA-6606I], the zone of inhibition at 200 µg/mL runs as follows: under setting [1], 19.5 mm; under setting [2], 10.5 mm.
